Assays:
Type in all cases: biochemical
cathepsin B = cathepsin B (Homo sapiens, UniProt P07858); assay: Inhibition of cathepsin B, incubation method; conditions: second-order rate constant, NI = no inhibition; for kinact/KI: pH 6, read-out: kobs/[I] cathepsin B
Excerpt: (§1) The release of 7-amino-4-methylcoumarin was monitored (λex=360 nm, λem=465 nm) using a Tecan Spectra Fluor microplate reader. Pseudo first-order inactivation rate constants were obtained from plots of In vt/vo versus time.

papain = molecular target: T1, papain (Carica papaya, UniProt P00784); assay: Inhibition of papain, incubation method; conditions: second-order rate constant, NI = no inhibition; for kinact/KI: pH 7.5, read-out: kobs/[I] papain
T1 sequence (P00784 134-345): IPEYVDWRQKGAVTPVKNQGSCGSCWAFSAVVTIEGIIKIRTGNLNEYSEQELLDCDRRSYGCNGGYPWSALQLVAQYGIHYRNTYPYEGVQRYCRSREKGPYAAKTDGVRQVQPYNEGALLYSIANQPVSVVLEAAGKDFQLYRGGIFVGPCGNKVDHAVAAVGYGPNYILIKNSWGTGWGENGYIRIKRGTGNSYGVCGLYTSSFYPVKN
Procedure: as §1
The incubation method was also used for papain. The inhibition incubation buffer for papain was 50 mM Hepes buffer at pH 7.5, containing 2.5 mM DTT and 2.5 mM EDTA. The assay used the substrate Z-Phe-Arg-pNA (53.7 μM) in the same buffer. The approximate concentration of papain added to the incubation buffer was 0.29 mg/mL. The release of p-nitroanilide was monitored at 405 nm with a Molecular Devices Thermomax microplate reader.

caspase-3 = molecular target: T2, caspase-3 (Homo sapiens, UniProt P42574); assay: Caspase-3 progress curve assay; conditions: substrate Z-DEVD-AFC; NI = no inhibition
T2 construct: made in house; host or cells: E. coli
T2 sequence (P42574 29-175 limits assumed): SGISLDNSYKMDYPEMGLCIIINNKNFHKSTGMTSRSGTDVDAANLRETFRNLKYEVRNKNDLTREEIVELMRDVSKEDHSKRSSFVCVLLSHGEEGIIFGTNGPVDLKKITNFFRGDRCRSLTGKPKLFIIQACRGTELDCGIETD
T2 sequence (P42574 176-277 limits assumed): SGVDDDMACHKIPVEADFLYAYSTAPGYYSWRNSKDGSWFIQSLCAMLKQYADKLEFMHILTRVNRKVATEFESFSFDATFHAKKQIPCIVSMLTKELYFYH
Procedure: Caspase-3, -6, and -8. Caspase-3, -6 and -8 were expressed in E. coli and purified according to methods previously described by Stennicke and Salvesen. Assays using the fluorogenic substrate Z-DEVD-AFC (λex=400 nm, λem=505 nm) were carried out on a Molecular Devices fMax fluorescence microplate reader. Inhibition rates and equilibria were determined by the progress curve method. The standard 100 μL reaction was started by adding enzyme to a mixture of substrate (final concentration of Z-DEVD-AFC 100 μM) and various amounts of inhibitor in buffer (50 mM Hepes, 100 mM NaCl, 0.1% (w/v) CHAPS, sucrose 10% (w/v), and 10 mM DTT, at pH 7.4). The caspases were pre-activated for 10 min at 37° C. in the presence of 10 mM DTT.

caspase-1 = molecular target: T3, caspase-1 (Homo sapiens, UniProt P29466, D381E); assay: Caspase-1 progress curve assay; conditions: D381E variant, substrate Ac-YVAD-AMC, 30° C.
T3 construct: His tag (N); made in house; host or cells: E. coli
T3 sequence (P29466 120-297 limits assumed): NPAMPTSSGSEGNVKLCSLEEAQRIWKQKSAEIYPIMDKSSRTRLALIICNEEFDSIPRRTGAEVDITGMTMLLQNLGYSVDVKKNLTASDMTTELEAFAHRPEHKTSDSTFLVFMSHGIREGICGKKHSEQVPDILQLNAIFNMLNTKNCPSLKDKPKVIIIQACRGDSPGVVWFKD
T3 sequence (P29466 317-404 D381E limits assumed): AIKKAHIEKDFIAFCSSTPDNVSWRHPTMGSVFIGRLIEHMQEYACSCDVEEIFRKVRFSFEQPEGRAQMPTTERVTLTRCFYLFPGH
Excerpt: Caspase-1. The preparation of the autolytically stable caspase-1 variant used in these studies has been described previously. Briefly, the variant contains a mutation (D381E) which renders it resistant to autolytic inactivation, but has no detectable affect on enzyme activity as compared to the naturally occurring enzyme. The enzyme variant was expressed in E. coli, purified first by immobilized metal chromatography via the N-terminal N-His tag, treated with excess oxidized glutathione to stabilize the reactive thiolate, and then re-purified by size-exclusion chromatography.
Inhibition data was measured using the progress curve assay method. Serial dilutions of each compound were prepared using an initial 8-fold dilution of a DMSO stock into HGE (100 mM HEPES,20% glycerol v/v, 0.5 mM EDTA), followed by seven serial two-fold dilutions into HGE and 12.5% DMSO, thus maintaining constant DMSO through the dilution series. Ten μL of diluted stocks or of vehicle (HGE and 12.5% DMSO) were placed in triplicate onto a 96-well microtiter plate, allowing several compounds to be tested on each plate. The plate was covered to minimize evaporation, and the plate was pre-warmed to 30° C. for 20 minutes. Enzyme was diluted into 10.0 mL of assay buffer (HGE, 5 mM DTT, plus 15 μM Ac-YVAD-AMC, 2 nM approximate final enzyme concentration), and this activated reaction mixture was added to the plate at 90 μL/well. Progress of substrate hydrolysis was monitored for 900 s in a LabSystems (Needham, Mass.) Fluoroskan Ascent fluorescent plate-reader using 385 and 460 nm excitation and emission filters, respectively, and a photomultiplier gain setting of 10. Triplicate curves were averaged and fit by nonlinear regression to the equation for irreversible inactivation shown below.
[formula] where F0 was routinely fixed to zero, since fluorescence values were always adjusted to an origin of 0. The second order rate constant kon (M^−1s^−1) was obtained from the slopes by linear regression, and errors represent the standard deviation of the regression slope.

Row | Structure (SMILES) | kinact/KI (papain) [M⁻¹ s⁻¹] | k2 caspase-3 (caspase-3) [M⁻¹ s⁻¹] | k2 caspase-1 (caspase-1) [M⁻¹ s⁻¹] | also measured
1 | C[C@H](NC(=O)OCc1ccccc1)C(=O)N[C@@H](C)C(=O)NN(CC(N)=O)C(=O)[C@@H]1O[C@H]1C(=O)OCc1ccccc1 (relative stereo) [Cbz-Ala-Ala-AAsn-trans-EP-COOCH2Ph, trans-3-(N^2-(N-Benzyloxycarbonylalanylalanyl)-N^1-carbamoylmethylhydrazinocarbonyl)oxirane-2-carboxylic Acid Benzyl Ester] | – | – | – | kinact/KI (cathepsin B): 1.09 M⁻¹ s⁻¹
2 | CCOC(=O)[C@H]1O[C@@H]1C(=O)N(CCC(N)=O)NC(=O)[C@H](Cc1ccccc1)NC(=O)[C@H](CC(C)C)NC(=O)OCc1ccccc1 [Cbz-Leu-Phe-AGln-(2S, 3S)-EP-COOEt, (2S,3S)-3-(N^2-(N-Benzyloxycarbonylleucylphenylalanyl)-N^1-carbamoylethylhydrazinocarbonyl)oxirane-2-carboxylic Acid Ethyl Ester] | – | – | – | kinact/KI (cathepsin B): 4.73 M⁻¹ s⁻¹
3 | CCOC(=O)[C@H]1O[C@@H]1C(=O)N(CC(=O)O)NC(=O)[C@@H](NC(=O)[C@H](CCC(=O)O)NC(=O)[C@H](CC(C)C)NC(=O)OCc1ccccc1)[C@@H](C)O [26c (S,S), (2S,3S)-3-(N^2-(N-Benzyloxycarbonylleucylglutamylthreonyl)-N^1-carboxymethylhydrazinocarbonyl)oxirane-2-carboxylic Acid Ethyl Ester] | 0.47 | 3210 ± 315 | 25730 | –
4 | CCCCC(NC(=O)OC(C)(C)C)C(=O)NN(CCc1ccccc1)C(=O)C1OC1CCc1ccccc1 (stereo not drawn) [Boc-Nle-AHph-trans-EP-CH2CH2Ph, Boc-Nle-AHph-(trans)-EP-CH2CH2Ph] | – | – | – | kobs/[I] papain (papain): 0.5 M⁻¹ s⁻¹
5 | CCOC(=O)[C@@H]1O[C@H]1C(=O)N(CC(N)=O)NC(=O)[C@H](C)NC(=O)[C@H](C)NC(=O)OCc1ccccc1 (relative stereo) [Cbz-Ala-Ala-AAsn-trans-EP-COOEt, trans-3-(N^2-(N-Benzyloxycarbonylalanylalanyl)-N^1-carbamoylmethylhydrazinocarbonyl)oxirane-2-carboxylic Acid Ethyl Ester] | – | – | – | kinact/KI (cathepsin B): 1.27 M⁻¹ s⁻¹
6 | CCOC(=O)[C@@H]1O[C@H]1C(=O)N(CC(=O)O)NC(=O)[C@@H](NC(=O)[C@H](CCC(=O)O)NC(=O)[C@H](CC(C)C)NC(=O)OCc1ccccc1)[C@@H](C)O [26c (R,R), (2R,3R)-3-(N^2-(N-Benzyloxycarbonylleucylglutamylthreonyl)-N^1-carboxymethylhydrazinocarbonyl)oxirane-2-carboxylic Acid Ethyl Ester] | 0.24 | 3250 ± 160 | 19570 | –
7 | CCOC(=O)[C@@H]1O[C@H]1C(=O)N(CC(C)C)NC(=O)[C@H](CC(C)C)NC(=O)[C@H](CC(C)C)NC(=O)OCc1ccccc1 [Cbz-Leu-Leu-ALeu-(2R, 3R)-EP-COOEt, (2R,3R)-3-(N^2-(N-Benzyloxycarbonylleucylleucyl)-N^1-isobutylhydrazinocarbonyl)oxirane-2-carboxylic Acid Ethyl Ester] | 20.6 | – | – | –
8 | O=C(N[C@@H](Cc1ccccc1)C(=O)NN(Cc1ccccc1)C(=O)[C@@H]1O[C@H]1CCc1ccccc1)OCc1ccccc1 (relative stereo) [Cbz-Phe-APhe-trans-EP-CH2CH2Ph, trans-3-(N^2-(N-3-Benzyloxyphenylalanyl)-N^1-benzylhydrazinocarbonyl)-2-(2-phenylethyl)oxirane] | – | – | – | kobs/[I] papain (papain): 0.5 M⁻¹ s⁻¹
9 | CC(C)CN(NC(=O)[C@H](Cc1ccccc1)NC(=O)OCc1ccccc1)C(=O)[C@@H]1O[C@H]1CCc1ccccc1 (relative stereo) [Cbz-Phe-ALeu-trans-EP-CH2CH2Ph] | – | – | – | kobs/[I] papain (papain): 0.7 M⁻¹ s⁻¹
10 | CCOC(=O)[C@H]1O[C@@H]1C(=O)N(CC(=O)O)NC(=O)[C@@H](NC(=O)[C@H](CCC(=O)O)NC(=O)[C@H](CC(=O)O)NC(=O)OCc1ccccc1)C(C)C [25c (S,S), (2S,3S)-3-(N^2-(N-Benzyloxycarbonylaspartylglutamylvalyl)-N^1-carboxymethylhydrazinocarbonyl)oxirane-2-carboxylic Acid Ethyl Ester] | – | 1074440 ± 154710 | 11840 ± 1214 | –
11 | CC(C)CC(NC(=O)[C@H]1O[C@@H]1C(=O)N(CC(=O)O)NC(=O)[C@H](C)NC(=O)[C@@H](NC(=O)CCc1ccccc1)C(C)C)C(N)=O (stereo partly drawn) [23k, (2S,3S)-2-(3-Methyl-1-amido-butylcarbamoyl)-3-(N^2-(3-phenylpropanoylvalylalanyl)-N^1-carboxymethylhydrazinocarbonyl)oxirane] | – | 420 ± 6 | 26090 ± 2562 | –
12 | CCC(NC(=O)OC(C)(C)C)C(=O)NN(CCc1ccccc1)C(=O)[C@@H]1O[C@H]1CCc1ccccc1 (relative stereo) [Boc-Abu-AHph-trans-EP-CH2CH2Ph, trans-3-(N^2-(N-tert-Butoxycarbonyl-α-aminobutanoyl)-N^1-phenylethylhydrazinocarbonyl)-2-(2-phenylethyl)oxirane] | – | – | – | kobs/[I] papain (papain): 0.2 M⁻¹ s⁻¹
13 | CC(C)[C@H](NC(=O)[C@H](CCC(=O)O)NC(=O)[C@H](CC(=O)O)NC(=O)OCc1ccccc1)C(=O)NN(CC(=O)O)C(=O)[C@H]1O[C@@H]1C(=O)N[C@@H](Cc1ccccc1)C(N)=O [25l, Cbz-Asp-Glu-Val-AAsp-(S,S)-EP-CO-Phe-NH2] | – | 722180 ± 340860 | 9250 ± 2835 | –

The next lines start with results.

Row | kinact/KI (papain) [M⁻¹ s⁻¹] | k2 caspase-3 (caspase-3) [M⁻¹ s⁻¹] | k2 caspase-1 (caspase-1) [M⁻¹ s⁻¹] | Structure (SMILES) | also measured
14 | 8.5 | – | – | CCOC(=O)[C@@H]1O[C@H]1C(=O)N(NCc1ccccc1)C(=O)OCc1ccccc1 (relative stereo) [Cbz-APhe-trans-EP-COOEt, trans-3-(N^2-Benzyl-N^1-benzyloxycarbonylhydrazinocarbonyl)oxirane-2-carboxylic Acid Ethyl Ester] | kinact/KI (cathepsin B): 1.8 M⁻¹ s⁻¹
15 | – | 1470 ± 40 | 52140 ± 5295 | CC(C)[C@H](NC(=O)CCc1ccccc1)C(=O)N[C@@H](C)C(=O)NN(CC(=O)O)C(=O)[C@H]1O[C@@H]1C(=O)OCc1ccccc1 [23d (S,S)] | kobs/[I] cathepsin B (cathepsin B): 0.81 M⁻¹ s⁻¹
16 | 0.92 | – | – | O=C(OCc1ccccc1)N(NCc1ccccc1)C(=O)[C@@H]1O[C@H]1CCc1ccccc1 (relative stereo) [Cbz-APhe-trans-EP-CH2CH2Ph, trans-3-(N^2-Benzyl-N^1-benzyloxycarbonylhydrazinocarbonyl)-2-(2-phenylethyl)oxirane] | –
